This assay has as its target farnesyl protein transferase (Homo sapiens, UniProt P49354+P49356). As to the kind of experiment: FPT IC50 (inhibition of farnesyl protein transferase, in vitro enzyme assay). Format: biochemical. The following applies: procedure of WO 95/10516, one collective range stated for the five listed compounds. How it is done:
FPT IC50 (inhibition of farnesyl protein transferase, in vitro enzyme assay) and COS Cell IC50 (Cell-Based Assay) were determined following the assay procedures described in WO 95/10516, published April 20, 1995. GGPT IC50 (inhibition of geranylgeranyl protein transferase, in vitro enzyme assay), Cell Mat Assay, and anti-tumor activity (in vivo anti-tumor studies) could be determined by the assay procedures described in WO 95/10516. The disclosure of WO 95/10516 is incorporated herein by reference thereto.

This is an account of results in patent publication EP0993454B1, “BENZO(5,6)CYCLOHEPTA(1,2B)PYRIDINE DERIVATIVES USEFUL FOR INHIBITION OF FARNESYL PROTEIN TRANSFERASE” (SCHERING CORPORATION, priority 1997, dated 1998).

For orientation: IC50 means the concentration that gives 50% inhibition. The low end stands for higher potency, the high end for lower potency.

The molecule `O=C(CC1CCNCC1)N1CCC(C2(O)c3ncc(Br)cc3CCc3cc(Cl)cc(Br)c32)CC1` (centres unmarked) [2 Step A] yielded an IC50 of 2 to 42 nM.

In turn, `NC(=O)CN1CCC(CC(=O)N2CCC(C3(O)c4ncc(Br)cc4CCc4cc(Cl)cc(Br)c43)CC2)CC1` (centres unmarked) [Example 3, 4-[2-[4-(3,10-dibromo-8-chloro-6,11-dihydro-11-hydroxy-5H-benzo[5,6]cyclohepta-[1,2-B]pyridin-11-yl)-1-piperidinyl]-2-oxoethyl]-1-piperidineacetamide] gave an IC50 of 2 to 42 nM.
